A short description of data set [1]: Solubility test in 84% aqueous EtOH solution. It is filed as physicochemical. How it is done: After stirring, the supernatant was filtered and the concentration of the filtrate was quantified by means of HPLC.
HPLC; Columns to be charged: Unison UK Phenyl (manufactured by Imtakt Corporation), particle diameter 3 μm, 4.6 mm×250 mm
Mobile phase: perchlorate buffer at pH 2.5 (0.01 mol/L)^(note)/mixed solution with MeCN for LC (4:1),
Flow rate of mobile phase: about 1.0 mL/min. Detector: ultraviolet absorptiometer (wavelength for measurement: 235 nm), column temperature: 50° C. (column thermostat vessel was used)

For data set [2] the following is noted: stirred at room temperature in a 84% EtOH solution.
Excerpt: The Form A61 crystals were stirred at room temperature and transition of crystal forms was attempted in a 84% EtOH solution.
Data set [3] is described as follows: Stability test of crystals (storage at 70° C., 70° C./75% RH, Xe lamp; HPLC related substances and powder X-ray diffraction). The settings on record: for LC: total amount of the related substances: Table 1; for Physical stability / change in the crystal forms: stored at 70° C. or 70° C.·75% RH for 2 weeks.
Description: A sample was stored with light-shielding under the condition of 70° C., 70° C.·75% RH for 2 weeks. The total amount of the related substance after storage was measured using HPLC, and the change in crystal forms was measured by means of powder X-ray diffraction.
The test drug was stored under the following conditions.
Initial (Stored under the cooling conditions): About 5 mg was collected with a 10 mL centrifuge tube and stored in a refrigerator.
70° C. (stored at 70° C.): About 5 mg was collected with a 10 mL centrifuge tube and stored in a mini-jet oven at 70° C. for 14 days.
70° C.·75% RH (stored at 70° C. and 75% relative humidity): About 5 mg was collected with a 10 mL centrifuge tube, a sample was put into a desiccator at 75% relative humidity in the open state, and the desiccator was stored in a mini jet oven at 70° C. for 14 days.
Xe lamp: This product was placed in a plastic Petri dish and stored for 40 hours under a Xe lamp (25° C. RH 60%, total irradiance 1,200,000 lx·h, total near-ultraviolet radiation energy 200 W·h/m^2 or more).
Initial, a product stored at 70° C. and a product stored at 70° C. and 75% RH were dissolved in a mixed solution (1:1) of MeCN for LC/water to exactly 10 mL, which was used as a sample solution.
HPLC; Detector: ultraviolet absorptiometer (wavelength measurement; 254 nm), column: Inertsil ODS-3 (particle diameter 3 μm, 2.1 mm×100 mm), column temperature: 40° C. (column thermostat vessel was used), mobile phase: Liquid A—1000 mL of water was added to perchlorate buffer at pH 2.5 {sodium perchlorate (NaClO4.H2O) (1.40 g) for dissolution, and adjusted to a pH of 2.5 with diluted perchloric acid (dilution of 100 mL of a commercially available 60% perchloric acid solution with 1900 mL of water)}. Liquid B—MeCN for LC, flow rate: 0.2 mL/min, Injection amount: 1 μL, (gradient setting: Liquid B 10% at 0.0 minutes to Liquid B 90% at 35 minutes).
Powder X-ray diffraction; tube: Cu, tube current: 300 mA, tube voltage, 50 kV, sampling width: 0.02°, scan speed: 4°/min, wavelength: 1.54056 angstroms, measured diffraction angle range (2θ): 2.5 to 40°
Data set [4] is described as follows: Solubility measured with a 80% aqueous EtOH solution. It is filed as physicochemical. The note with it: organic solvent or mixture. The protocol:
The solubility was measured with a 80% aqueous EtOH solution. Further, the crystals of 0.5 L-tartrate and lactate were prepared as crystallized from a crystallization solvent described in Tables below.

Data set [5] has as its target T1, JAK3 (Homo sapiens, UniProt P52333).
T1 sequence (P52333 1-1124): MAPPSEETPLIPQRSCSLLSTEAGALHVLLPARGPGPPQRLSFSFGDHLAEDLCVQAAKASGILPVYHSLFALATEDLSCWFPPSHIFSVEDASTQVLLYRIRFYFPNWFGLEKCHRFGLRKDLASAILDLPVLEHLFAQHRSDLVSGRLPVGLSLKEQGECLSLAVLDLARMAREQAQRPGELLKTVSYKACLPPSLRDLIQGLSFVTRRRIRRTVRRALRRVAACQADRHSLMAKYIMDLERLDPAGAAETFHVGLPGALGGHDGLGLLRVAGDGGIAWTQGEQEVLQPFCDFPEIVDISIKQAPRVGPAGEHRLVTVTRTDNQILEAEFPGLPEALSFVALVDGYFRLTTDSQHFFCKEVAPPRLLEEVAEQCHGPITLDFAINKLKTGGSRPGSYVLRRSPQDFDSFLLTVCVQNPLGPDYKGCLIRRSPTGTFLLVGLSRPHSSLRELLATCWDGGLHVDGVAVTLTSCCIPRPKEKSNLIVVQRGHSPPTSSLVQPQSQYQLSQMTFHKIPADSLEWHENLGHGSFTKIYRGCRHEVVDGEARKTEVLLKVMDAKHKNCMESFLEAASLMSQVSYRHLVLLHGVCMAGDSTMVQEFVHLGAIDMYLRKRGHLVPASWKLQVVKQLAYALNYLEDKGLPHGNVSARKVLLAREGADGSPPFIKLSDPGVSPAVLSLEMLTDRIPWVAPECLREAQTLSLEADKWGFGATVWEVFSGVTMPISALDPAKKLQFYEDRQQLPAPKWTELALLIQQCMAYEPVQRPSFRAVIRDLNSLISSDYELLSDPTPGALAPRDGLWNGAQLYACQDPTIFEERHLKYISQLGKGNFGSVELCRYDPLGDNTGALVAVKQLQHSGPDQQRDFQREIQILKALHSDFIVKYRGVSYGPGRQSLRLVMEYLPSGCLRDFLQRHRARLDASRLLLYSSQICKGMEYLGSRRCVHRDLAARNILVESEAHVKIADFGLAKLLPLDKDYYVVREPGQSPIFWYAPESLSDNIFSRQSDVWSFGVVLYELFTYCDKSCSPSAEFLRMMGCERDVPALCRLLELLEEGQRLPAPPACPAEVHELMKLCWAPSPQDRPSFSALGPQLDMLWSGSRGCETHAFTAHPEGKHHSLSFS
The settings on record: as described in Patent Document 1; cited from earlier work.

The mark [6] stands for this setting: 70° C. 75% RH, 2 weeks, hydrobromide.
[7] abbreviates: Initial (stored in a refrigerator), hydrobromide.
Where [8] appears, read: Initial (stored in a refrigerator).

Here are results for six compounds from patent publication US8779140B2, “Crystal of fused pyridine compound salt” (Astellas Pharma Inc., priority 2010, dated 2014).

The Solubility is the concentration that dissolves in the medium under given conditions. Regarding `Br.NC(=O)c1cnc2[nH]ccc2c1N[C@@H]1[C@@H]2C[C@@H]3C[C@H]1C[C@@](O)(C3)C2` [Form A61, 4-{[(1R,2s,3S,5s,7s)-5-hydroxy-2-adamantyl]amino}-1H-pyrrolo[2,3-b]pyridine-5-carboxamide hydrobromide], the Solubility stood at 37.2 mg/mL in data set [1] (25° C., hydrobromide); 45.5 mg/mL in data set [1] (35° C., hydrobromide); 53.8 mg/mL in data set [1] (50° C., hydrobromide). Further, the “Transition of crystal form” value in data set [2] is given as “underwent transition to a Form B45 after 4 hours”. Moreover, the “LC: total amount of the related substances” value (from here on “LC: total amount”) in data set [3] (setting [6]) was 0.43%; in data set [3] (70° C., 2 weeks, hydrobromide), 0.44%; in data set [3] (setting [7]), 0.44%; in data set [3] (Xe lump 40H, hydrobromide) it was 0.77%. For the same compound, the “Physical stability / change in the crystal forms” value in data set [3] is given as “physically stable”.

In the case of `Br.NC(=O)c1cnc2[nH]ccc2c1N[C@@H]1[C@@H]2C[C@@H]3C[C@H]1C[C@@](O)(C3)C2` [Form B45, 4-{[(1R,2s,3S,5s,7s)-5-hydroxy-2-adamantyl]amino}-1H-pyrrolo[2,3-b]pyridine-5-carboxamide hydrobromide], in data set [1], the “Solubility rank among crystal forms” value is “lowest solubility crystal form”. Also, the Solubility in data set [1] (25° C., hydrobromide) worked out at 23.7 mg/mL; in data set [1] (35° C., hydrobromide), 29.4 mg/mL; in data set [1] (50° C., hydrobromide), 36.7 mg/mL. Besides, the “LC: total amount” value in data set [3] (setting [6]) is 0.11%; in data set [3] (70° C., 2 weeks, hydrobromide), 0.11%; in data set [3] (setting [7]), 0.11%; in data set [3] (Xe lump 40H, hydrobromide) it was 0.11%. The “Physical stability / change in the crystal forms” value in data set [3] was “physically stable”.

For the compound `NC(=O)c1cnc2[nH]ccc2c1N[C@@H]1[C@@H]2CC3C[C@H]1C[C@@](O)(C3)C2` [Form A01, 4-{[(1R,2s,3S,5s,7s)-5-hydroxy-2-adamantyl]amino}-1H-pyrrolo[2,3-b]pyridine-5-carboxamide monohydrate, reference compound], the “Change of crystal on storage” value in data set [3] (no humidity at 70° C.) is reported as “transition to an anhydride in a free form”. Moreover, the Solubility in data set [4] was under 10 mg/mL.

Turning to `NC(=O)c1cnc2[nH]ccc2c1N[C@@H]1[C@@H]2CC3C[C@H]1C[C@@](O)(C3)C2` [Ex. 121, 4-{[(1R,2s,3S,5s,7s)-5-hydroxy-2-adamantyl]amino}-1H-pyrrolo[2,3-b]pyridine-5-carboxamide], the JAK3 inhibitory activity result in data set [5] was “excellent activity”. Moreover, the “Stability with respect to temperature and humidity” value in data set [3] (crystallized free form) was “not stable with respect to temperature and humidity even when crystallized”.

For the compound `Br.NC(=O)c1cnc2[nH]ccc2c1N[C@@H]1[C@@H]2C[C@@H]3C[C@H]1C[C@@](O)(C3)C2.O` [Form B11, 4-{[(1R,2s,3S,5s,7s)-5-hydroxy-2-adamantyl]amino}-1H-pyrrolo[2,3-b]pyridine-5-carboxamide hydrobromide monohydrate], the Solubility in data set [1] (25° C.) worked out at 35.0 mg/mL; in data set [1] (35° C.), 44.1 mg/mL; in data set [1] (50° C.), 60.1 mg/mL. Also, the “LC: total amount” value in data set [3] (70° C. 75% RH, 2 weeks) is listed as 0.43%; in data set [3] (70° C., 2 weeks), 0.43%; in data set [3] (setting [8]) it was 0.43%; in data set [3] (Xe lump 40H), 0.48%.

On to `Br.NC(=O)c1cnc2[nH]ccc2c1N[C@@H]1[C@@H]2C[C@@H]3C[C@H]1C[C@@](O)(C3)C2.O.O` [Form B21, 4-{[(1R,2s,3S,5s,7s)-5-hydroxy-2-adamantyl]amino}-1H-pyrrolo[2,3-b]pyridine-5-carboxamide hydrobromide dihydrate], for which the Solubility stood at 36.1 mg/mL in data set [1] (25° C.), 46.3 mg/mL in data set [1] (35° C.) and 58.2 mg/mL in data set [1] (50° C.). Moreover, the “LC: total amount” value worked out at 0.05% in data set [3] (70° C. 75% RH, 2 weeks); 0.05% in data set [3] (70° C., 2 weeks); 0.00% in data set [3] (setting [8]); 0.05% in data set [3] (Xe lump 40H).
